Experimental data from patent US20020127605A1 (priority 2000, published 2002).

What follows are compounds tested against T1, human recombinant CyPA (Homo sapiens, UniProt P62937) (assay: Rotamase inhibition, chymotrypsin-coupled cuvette assay (asterisked values)). Settings: not given.
Format: biochemical
Source text: (§1) A number of substrates for rotamase are known in the art or can be derived from those known. Typically, the substrate contacts a sample containing a protein with rotamase activity and the conversion of the substrate is detected after a period of time. The method for detecting conversion of the substrate will vary with the particular substrate chosen. One method has been termed the Ki test (See Harding, et al., Nature, 341:758-760 (1989). The cis-trans isomerization of an alanine-proline bond in a model substrate, N-succinyl-Ala-Ala-Pro-Phe-p-nitroanilide, is monitored spectrophotometrically in a chymotrypsin-coupled assay. The action of chymotrypsin releases p-nitroaniline from only the trans form of the substrate. The amount of p-nitroaniline can be monitored in a spectrophotometer, for example. Other methods of detecting the presence of p-nitroaniline can also be used. The inhibition of this reaction caused by different concentrations of inhibitor is determined and the data are analyzed as a change in first-order rate constant as a function of inhibitor concentration, which yields the Ki value.
(§2) The following were added to a plastic cuvette: […] of ice cold assay buffer (25 mM HEPES, pH 7.8, 100 mM NaCl), 10 μL of CyP A (2.5 μM in 10 mM Tris-Cl pH 7.5, 100 mM NaCl, 1 mM dithiothreitol), 25 μL of chymotrypsin (50 mg/ml in 1 mM HCl), and 10 μL of test compound, at various concentrations, in dimethyl sulfoxide. The reaction was initiated by the addition of 5 μL of substrate (succinyl-Ala-Phe-Pro-Phe-para-nitroanilide, 5 mg/mL in 470 mM LiCl in trifluoroethanol). The absorbance at 390 nm versus time was monitored for 90 seconds using a spectrophotometer and the rate constants were determined from the absorbance versus time data files.
(§3) The IC50 values that were obtained for representative compounds in the following Table I refer to the concentration that inhibits 50% of the rotamase activity in a sample. […] The Cyclophilin utilized was a recombinant rat CyPA-GST fusion protein: CypA was amplified from rat brain cDNA using standard PCR methods, primed with the following sequences: 5′ CCCCCCGGGAGTCAACCCCACCGTGTTCTTCGA 3′ and 5′ GGAGATCTAGAGTTGTCCACAGTCGGAGATGGT 3′. The resulting fragment (573 base pairs) was cloned into pCRII and amplified. The CyP sequence was cut out with Smal and EcoRl and cloned into the Smal/EcoRl sites in pGEX2TK (Pharmacia). This plasmid was transformed into BL21 E. coli cells for expression of the GST-CyPA fusion protein.

T1 sequence (P62937 whole entry): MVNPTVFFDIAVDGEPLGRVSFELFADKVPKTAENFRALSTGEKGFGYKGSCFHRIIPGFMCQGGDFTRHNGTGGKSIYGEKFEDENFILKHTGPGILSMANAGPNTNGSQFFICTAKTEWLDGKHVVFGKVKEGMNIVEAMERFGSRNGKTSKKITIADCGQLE

Compound | IC50
O=C(Nc1cccc(N(S(=O)(=O)c2ccc3ccccc3c2)S(=O)(=O)c2ccc3ccccc3c2)c1)c1cc(Cl)cc(Cl)c1 [Compound 8] | 804 nM

Same assay, conditions: human recombinant CyPA; values with asterisk; read-out: IC50 (rotamase activity)

Compound | IC50
S=C(Nc1cc(Cl)cc(Cl)c1)Nc1cccc(C=NN(c2ccccc2)c2ccccc2)c1 [Compound 21, ({3-[2-aza-2-(diphenylamino)vinyl]phenyl}amino)[(3,5-dichlorophenyl)amino]methane-1-thione] | 512 nM
O=S(=O)(Oc1cccc(NC(=S)Nc2cc(Cl)cc(Cl)c2)c1)c1c(F)c(F)c(F)c(F)c1F [Compound 22, 3-({[(3,5-dichlorophenyl)amino]thioxomethyl}amino)phenyl 2,3,4,5,6-pentafluorobenzenesulfonate] | 733 nM
O=C(NNC(=O)c1cccc(NC(=O)c2cccc(OCc3ccccc3)c2)c1)c1cc(Cl)cc(Cl)c1 [Compound 30, 1-{3-[(3-Benzyloxy)phenylcarboxamido]benzoyl}-2-(3,5-dichlorobenzoyl)hydrazine] | 464 nM
O=C(NNS(=O)(=O)c1ccc(Cl)c(Cl)c1)c1cccc(NC(=O)c2cccc(OCc3ccccc3)c2)c1 [Compound 31, 1-{3-[(3-Benzyloxy)phenylcarboxamido]benzoyl}-2-(3,4-dichlorobenzenesulfonyl)hydrazine] | 974 nM
O=C(CCCCc1ccccc1)Nc1cccc(C(=O)NNC(=S)Nc2ccc(Cl)c(Cl)c2)c1 [Compound 33, 1-{3-[(5-Phenyl)valeroylamino]benzoyl}-4-(3,4-dichlorophenyl)thiosemicarbazide] | 85 nM

These compounds were tested against T1, human recombinant CyPA (assay: Semiautomated microtiter plate assay of rotamase activity inhibition). Settings: 30 minute preincubation at 4° C., read-out: IC50 (rotamase inhibition, modified plate reader assay).
Format: biochemical
Method: Semiautomated Assay of Rotamase Activity Inhibition: Rotamase inhibition was determined using a semiautomated microtiter plate assay modification of the above described assay [see Küillertz et al., Clin. Chem. 44, 502-508 (1998)]. All dilutions of CyPA, peptide substrate, and chymotrypsin were made in 35 mM ice-cold HEPES buffer. Fifty μL of CyPA solution were added to 50 μL of peptide substrate solution (Phe-Pro-Phe p-nitroanilide, 0.16 mg/ml) in a glass microtiter well plate (the concentration of human recombinant CyP being adjusted so that the reaction rate is increased by a factor of 3 as compared to an uncatalyzed control reaction wherein the peptide substrate is degraded by chymotrypsin alone, in the absence of CyPA and test compound). Using a Beckman Multimek™ 96 automated 96-channel pipettor, 5 μL of test compound solution, or a DMSO blank, were added to each well for a 30 minute preincubation at 4° C. One hundred μL of chymotrypsin solution (1 mg/mL) were added to each well and the absorbance at 390 nm versus time was monitored for 9-10 minutes using a BioRad Ultramark plate reader maintained at 4° C. and the rate constants were determined from the absorbance versus time data files. The cyclophilin utilized was a human recombinant CyPA [Yoo et al., J. Mol. Biol., 269 (1997) 780-95].
IC50 values which were obtained for representative compounds using this modified plate reader assay of rotamase inhibition are given in the following Table II: […]

Compound | IC50
O=S(=O)(c1cc(Cl)cc(Cl)c1)N(c1cccc(N(S(=O)(=O)c2ccc3ccccc3c2)S(=O)(=O)c2ccc3ccccc3c2)c1)S(=O)(=O)c1cc(Cl)cc(Cl)c1 [Compound 9, (3-{Bis[(3,5-dichlorophenyl)sulfonyl]amino}phenyl)bis(2-naphthylsulfonyl)amine] | 309 nM
S=C(Nc1ccc(I)cc1)NC1CCCCC1NC(=S)Nc1ccc(I)cc1 (stereo not drawn) [Compound 13, [(4-iodophenyl)amino]{[2-({[(4-iodophenyl)amino]thioxomethyl}amino)cyclohexyl]amino}methane-1-thione] | 2060 nM
O=C(NNC(=O)c1cccc(NC(=O)c2cccc(OCc3ccccc3)c2)c1)c1cc(Cl)cc(Cl)c1 [Compound 30, 1-{3-[(3-Benzyloxy)phenylcarboxamido]benzoyl}-2-(3,5-dichlorobenzoyl)hydrazine] | 3760 nM
O=C(NNS(=O)(=O)c1ccc(Cl)c(Cl)c1)c1cccc(NC(=O)c2cccc(OCc3ccccc3)c2)c1 [Compound 31, 1-{3-[(3-Benzyloxy)phenylcarboxamido]benzoyl}-2-(3,4-dichlorobenzenesulfonyl)hydrazine] | 2710 nM
O=C(CCCCCc1cccc(C(F)(F)F)c1)Nc1cccc(C(=O)NNC(=S)Nc2ccc(Cl)c(Cl)c2)c1 [Compound 32, 1-{[1-Aza-2-oxo-7-(3-trifluoromethylphenyl)]heytyl}-3-{[5-(3 4-dichlorophenyl)-1-oxo-2,3,5-triaza-4-thio]pentyl}benzene] | 154 nM
O=C(CCCCc1ccccc1)Nc1cccc(C(=O)NNC(=S)Nc2ccc(Cl)c(Cl)c2)c1 [Compound 33, 1-{3-[(5-Phenyl)valeroylamino]benzoyl}-4-(3,4-dichlorophenyl)thiosemicarbazide] | 713 nM
O=C(CCCCc1ccccc1)Nc1cccc(S(=O)(=O)NC(=S)Nc2ccc(Cl)c(Cl)c2)c1 [Compound 34A] | 4640 nM
O=C(CCCCc1ccccc1)Nc1cccc(S(=O)(=O)NC(=O)Nc2ccc(Cl)c(Cl)c2)c1 [Compound 34B] | 19100 nM
O=C(CCCCc1ccccc1)Nc1cccc(S(=O)(=O)NNC(=S)Nc2ccc(Cl)c(Cl)c2)c1 [Compound 35] | 372 nM
O=C(CCCCCCc1ccccc1)Nc1cccc(C(=O)NNC(=S)Nc2ccc(Cl)c(Cl)c2)c1 [Compound 37, 1-{3-[(7-Phenyl)heptanoylamino]benzoyl}-4-(3,4-dichlorophenyl)thiosemicarbazide] | 532 nM
O=C(CCCCc1cccs1)Nc1cccc(C(=O)NNC(=S)Nc2ccc(Cl)c(Cl)c2)c1 [Compound 38, 1-{[1-Aza-2-oxo-6-(thien-2-yl)]hexyl}-3-{[5-(3,4-dichlorophenyl)-1-oxo-2,3,5-triaza-4-thio]pentyl}benzene] | 672 nM
O=C(CCCCc1ccccc1)Nc1cccc(/C=N/NC(=S)Nc2ccc(Cl)c(Cl)c2)c1 [Compound 39, N-{3-[(1E)-2-aza-2-({[(3,4-dichlorophenyl)amino]thioxomethyl}amino)vinyl]phenyl}-5-phenylpentanamide] | 1410 nM
O=C(CCCCc1ccccc1)Nc1cccc(-c2nnc(Nc3ccc(Cl)c(Cl)c3)s2)c1 [Compound 40A, 5-Phenyl-pentanoic acid {3-[5-(3,4-dichloro-phenylamino)-[1,3,4]thiadiazol-2-yl]-phenyl}-amide] | 2800 nM
O=C(CCCCc1ccccc1)Nc1cccc(-c2nnc(Nc3ccc(Cl)c(Cl)c3)o2)c1 [Compound 40B, 5-Phenyl-pentanoic acid {3-[5-(3,4-dichloro-phenylamino)-[1,3,4]oxadiazol-2-yl]-phenyl}-amide] | 883 nM
O=C(CCCCc1ccccc1)Nc1cccc(C(=O)NNC(=S)NC23CC4CC(CC(C4)C2)C3)c1 [Compound 41, 1-[(6-Phenyl-1-aza-2-oxo)hexyl]-3-{[(adamant-1-yl)-1-oxo-2,3,5-triaza-4-thio]pentyl}-benzene] | 5190 nM
O=C(CCCCc1ccccc1)Nc1cccc(NC(=O)CC(=O)Nc2ccc(Cl)c(Cl)c2)c1 [Compound 42, 1-[(6-Phenyl-1-aza-2-oxo)hexyl]-3-{[5-(3,4-dichlorophenyl)-1,5-diaza-2,4-oxo]pentyl}-benzene] | 6090 nM
O=C(CCCCc1ccccc1)Nc1ccc(C(=O)NNC(=S)Nc2ccc(Cl)c(Cl)c2)cc1 [Compound 43, 1-{4-[(5-Phenyl)pentanoylamino]benzoyl}-4-(3,4-dichlorophenyl)thiosemicarbazide] | 1570 nM
O=C(CCCCCc1cccc(C(F)(F)F)c1)Nc1cccc(S(=O)(=O)NC(=S)Nc2ccc(Cl)c(Cl)c2)c1 [Compound 45] | 130 nM
L-N-[3-(6-Phenylhexanoylamino)benzoyl]proline 3,4-dichlorobenzamide [Compound 36] | 9050 nM

These compounds were tested against T2, recombinant rat CyPA-GST fusion protein (Rattus norvegicus, UniProt P10111) (assay: Rotamase (prolyl peptidyl cis-trans isomerase) inhibition, chymotrypsin-coupled cuvette assay). Settings: not given.
T2 construct: made in house; host or cells: E. coli BL21
T2 sequence (P10111 2-164): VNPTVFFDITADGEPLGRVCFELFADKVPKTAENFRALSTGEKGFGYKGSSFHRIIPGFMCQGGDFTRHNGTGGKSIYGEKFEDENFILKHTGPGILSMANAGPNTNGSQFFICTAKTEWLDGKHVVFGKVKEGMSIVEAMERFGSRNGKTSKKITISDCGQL
Format: biochemical
Source text: as §1, §2, §3

Compound | IC50
O=C(Nc1cccc(N(S(=O)(=O)c2ccc3ccccc3c2)S(=O)(=O)c2ccc3ccccc3c2)c1)c1cc(Cl)cc(Cl)c1 [Compound 8] | 701 nM
O=C(Nc1cccc(Oc2ccccc2)c1)Nc1cc(C(F)(F)F)cc(C(F)(F)F)c1 [Compound 26] | 1560 nM
O=C(Nc1cc(Cl)cc(Cl)c1)Nc1ccccc1NC(=O)Nc1cc(Cl)cc(Cl)c1 [Compound 27] | 667 nM
O=C(Nc1ccccc1NC(=O)c1ccc(I)cc1)c1ccc(I)cc1 [Compound 29] | 940 nM

Same assay, conditions: recombinant rat CyPA-GST fusion protein; values without asterisk; read-out: IC50 (rotamase activity)

Compound | IC50
S=C(Nc1ccc(I)cc1)NC1CCCCC1NC(=S)Nc1ccc(I)cc1 (stereo not drawn) [Compound 13, [(4-iodophenyl)amino]{[2-({[(4-iodophenyl)amino]thioxomethyl}amino)cyclohexyl]amino}methane-1-thione] | 680 nM
O=C(Nc1cccc(OS(=O)(=O)c2c(F)c(F)c(F)c(F)c2F)c1)c1cc(Cl)cc(Cl)c1 [Compound 25, 3-[(3,5-dichlorophenyl)carbonylamino]phenyl 2,3,4,5,6-penta-fluorobenzenesulfonate] | 964 nM
S=C(Nc1cc(Cl)cc(Cl)c1)Nc1ccccc1NC(=S)Nc1cc(Cl)cc(Cl)c1 [Compound 28, [(3,5-dichlorophenyl)amino]{[2-({[(3,5-dichlorophenyl)amino]thioxomethyl}amino)phenyl]amino}methane-1-thione] | 1100 nM
bis[(3,5-dichlorophenyl)sulfonyl](3-{[(naphthylamino) thioxomethyl]amino}phenyl)amine [Compound 5] | 783 nM
